According to US6541463B1, “Inhibitors of type 5 and type 3 17β-hydroxysteroid dehydrogenase and methods for their use” (Endorecherche, Inc., priority 1998, dated 2003):
Read-outs that look alike come from different tables or passages of the source.

How the values were obtained:
[1] = system: Shionogi mouse mammary carcinoma cells; assay: Androgenic activity: stimulation of proliferation of Shionogi cells; type: cell-based
Method in brief: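 Shionogi mouse mammary carcinoma cells, at 20 000 cells/well in medium with 5% charcoal-stripped FCS, were grown 10–12 days with the inhibitor at 10^−7 M and 10^−6 M in triplicate. Medium was changed every 3–4 days. Proliferation was read by Coulter counting and given as % stimulation.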

[2] = system: Shionogi mouse mammary carcinoma cells; assay: Antiandrogenic activity: inhibition of DHT-induced proliferation of Shionogi cells; type: cell-based
Method in brief: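 Androgen-sensitive Shionogi mouse mammary carcinoma cells, 20 000/well, were grown 10–12 days in charcoal-stripped serum with increasing agent concentrations in triplicate, with medium changed every 3–4 days. Cell number was counted directly, and ED50 was derived by least-square regression.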

[3] = Table 4′, DHT-induced proliferation, E^−6 (10^−6 M)
[4] = Table 4′, DHT-induced proliferation, E^−7

Structure (SMILES)	Androgenic Activity Shionogi, Basal E^−6 ([1]; Table 4′, E^−6) [%]	Androgenic Activity Shionogi, Basal E^−7 ([1]; Table 4′, E^−7) [%]	Antiandrogenic Activity Shionogi, DHT E^−6 [2, 3] [%]	Antiandrogenic Activity Shionogi, DHT E^−7 [2, 4] [%]	also measured
CCOc1ccc2c(c1)CCC1C2CC[C@@]2(C)C1CC[C@@]21CCC(C)(C)C(=O)O1 (stereo partly drawn) [EM-1369, 3-Ethoxy-1,3,5(10)-estratrien-17(R)-spiro-2′-(5′,5′-dimethyl-6′-oxo)-tetrahydropyran]	0	0	−24	0	–
CCCCN(C)C(=O)[C@@]1(OC(C)=O)CCC2C3C=C(C)C4=CC(=O)CC[C@]4(C)C3CC[C@@]21C (some centres unmarked) [EM-1165]	–	–	–	–	Androgenic Activity Shionogi, Basal ([1]; E^−6): −17; Androgenic Activity Shionogi, Basal ([1]; E^−7): 5; Antiandrogenic Activity Shionogi, DHT ([2]; E^−6): −102; Antiandrogenic Activity Shionogi, DHT ([2]; E^−7): −14; IC50 ([2]; Mus musculus, read-out: Antiandrogenic Activity Shionogi, DHT [IC50]): 232 nM
CN(C)C(=O)c1ccc2c(c1)CCC1C2CCC2(C)C1CCC21CCC(C)(C)C(=O)O1 (centres unmarked) [EM-1403]	0	19	−54	0	inhibition at 1 µM ([2]; Mus musculus, 10^−6 M inhibitor, negative number = stimulation reduced, read-out: percentage of inhibition of DHT-induced proliferation of Shionogi cells): 54%
CCC[C@@H]1CC2C3C=CC4=CC(=O)CC[C@]4(C)C3CC[C@]2(C)C1=O (some centres unmarked) [EM-1097]	–	–	–	–	Androgenic Activity Shionogi, Basal E^−6 ([1]; E^−6): −12; Androgenic Activity Shionogi, Basal E^−7 ([1]; E^−7): 18; Antiandrogenic Activity Shionogi, DHT E^−6 ([2]; with DHT, E^−6): −71; Antiandrogenic Activity Shionogi, DHT E^−7 ([2]; with DHT, E^−7): −3
COCCOc1cc2c(cc1C(F)(F)F)[C@H]1CC[C@@]3(C)[C@@H](CC[C@@]34CCC(C)(C)C(=O)O4)[C@@H]1CC2 [EM-1438, 3-(2′-Methoxyethoxy)-2-trifluoromethyl-1,3,5(10)-estratrien-17(R)-spiro-2′-(5′,5′-dimethyl-6′-oxo)tetrahydropyran]	−14	10	−53	0	–
COCCOc1ccc2c(c1)CCC1C2CCC2(C)C1CCC21CCC(C)(C)C(=O)O1 [EM-1368-CS, 3-Methoxyethoxy-1,3,5(10)-estratrien-17(R)-spiro-2′-(5′,5′-dimethyl-6′-oxo)-tetrahydropyran]	−22	8	−44	0	–
CC1(C)CC[C@@]2(CCC3C4CCc5cc(C(N)=O)ccc5C4CCC32C)OC1=O (some centres unmarked) [EM-1404]	0	0	–	–	IC50 ([2]; Mus musculus, Table 4′, bracketed values, read-out: Antiandrogenic Activity Shionogi, DHT [IC50 (nM)]): ~1000 nM
CC(=O)O[C@]1(C(=O)N(C)C)CCC2C3C=C(C)C4=CC(=O)CC[C@]4(C)C3CC[C@@]21C (some centres unmarked) [EM-1159]	–	–	–	–	Androgenic Activity Shionogi, Basal ([1]; E^−6): −14; Androgenic Activity Shionogi, Basal ([1]; E^−7): 15; Antiandrogenic Activity Shionogi, DHT ([2]; E^−6): −71; Antiandrogenic Activity Shionogi, DHT ([2]; E^−7): 1
CC1(C)CC[C@@]2(CC[C@H]3[C@@H]4CCc5c(cc(Br)c(O)c5Br)[C@H]4CC[C@@]32C)OC1=O [EM-1382-CS]	0	0	0	0	–
COc1c(Br)cc2c(c1Br)CCC1C2CCC2(C)C1CCC21CCC(C)(C)C(=O)O1 (centres unmarked) [EM-1385-CS]	−28	−11	−61	0	–
CC12C=CC(=O)C=C1C=CC1C2CCC2(C)C(=O)C3(CCCCC3)CC12 (centres unmarked) [CS-204]	–	–	–	–	Androgenic Activity Shionogi, Basal E^−6 ([1]; E^−6): −17; Androgenic Activity Shionogi, Basal E^−7 ([1]; E^−7): 0; Antiandrogenic Activity Shionogi, DHT E^−6 ([2]; with DHT, E^−6): −13; Antiandrogenic Activity Shionogi, DHT E^−7 ([2]; with DHT, E^−7): −25
COCCOc1cc2c(cc1C(N)=O)C1CC[C@@]3(C)C(CC[C@@]34CCC(C)(C)C(=O)O4)C1CC2 (stereo partly drawn) [EM-1424, 2-Carbamoyl-3-(2″-methoxyethyloxy)-1,3,5(10)-estratrien 17(R)-spiro-2′-(5′,5′-dimethyl-6′-oxo)tetrahydropyran]	−17	0	−58	−22	–
CC1(C)CC[C@@]2(CCC3C4CCc5cc6oncc6cc5C4CC[C@@]32C)OC1=O (stereo partly drawn) [EM-1407-CS, 1,3,5(10)-estratrien-(2,3-oximino)-17(R)-spiro-2′-(5′,5′-dimethyl-6′-oxo)tetrahydropyran]	−23	0	−96	−16	–
COC(=O)c1cc2c(cc1O)CCC1C2CCC2(C)C1CCC21CCC(C)(C)C(=O)O1 (centres unmarked) [EM-01662]	−27	0	−51	−11	–
CC1(C)CCC2(CCC3C4CCc5cc(C(=O)OCc6ccccc6)ccc5C4CCC32C)OC1=O (centres unmarked) [EM-1398]	−10	13	−37	0	–
COc1cc2c(cc1C(F)(F)F)C1CCC3(C)C(CCC34CCC(C)(C)C(=O)O4)C1CC2 [EM-1409, 3-Methoxy-2-trifluoromethyl-1,3,5(10)-estratrien-17(R)-spiro-2′-(5′,5′-dimethyl-6′-oxo)tetrahydropyran]	−23	5	−105	−5	–
COC(=O)C1CCC2(CCC3C4CCc5cc(O)ccc5C4CCC32C)OC1=O [PB-132-146, 3-Hydroxy-1,3,5(10)-estratrien-17(R)-2′-(5′-methoxycarbonyl-6′-oxo)tetrahydropyran]	0	29	−40	14	–
CC1(C)CCC2(CCC3C4CCc5cc(O)c(C(N)=O)cc5C4CCC32C)OC1=O (centres unmarked) [EM-01660]	−31	−4	−51	−20	–
CC1(C)CCC2(CCC3C4CCc5c(cc(Cl)c(OS(C)(=O)=O)c5Cl)C4CCC32C)OC1=O (centres unmarked) [EM-1392-CS]	−35	7	−75	0	–
